Reference: BindingDB's records for patent US12180185 (Hk Inno.N, 2024)

Target: Tyrosine-protein kinase JAK1 (Homo sapiens, UniProt P23458)
Assay: ADP-Glo Kinase assay
Method: An inhibitory effect of the inventive compound on JAK was identified as follows.A control material and a test material were prepared through dilution at each concentration by using DMSO. At the same time, ATP (250 uM) and JAK's substrate (JAK1, IRS-1tide 40 ng/mL) were prepared through dilution in kinase buffer (40 mM Tris-HCl pH 7.5, 20 mM MgCl2, 0.5 mg/mL BSA, 50 uM DTT).A test drug for each concentration, the substrate, the ATP and JAK enzymes were mixed in an eppendorf tube, and then subjected to reaction in an incubator at 30° C. for 40 minutes.ADP-GloFigure US12180185-20241231-P00001 reagent included in ADP-Glo™ Kinase Enzyme System (Promega, USA, V9571) was added to each eppendorf tube, and then subjected to reaction in the incubator at 30° C. for 40 minutes.A kinase detection reagent included in the ADP-Glo™ Kinase Enzyme System was inserted into the eppendorf tube, after which luminescence was measured by using Wallac Victor 2TM with an integration time set to 1 second, such that an inhibitory capacity of the test material on JAKs phosphorylation was analyzed. A concentration of the compound, at which JAK enzyme activity inhibition occurs 50% compared to the control group, was determined as IC50 (nM) of an inhibitor.

Tyrosine-protein kinase JAK1, sequence (P23458 whole entry): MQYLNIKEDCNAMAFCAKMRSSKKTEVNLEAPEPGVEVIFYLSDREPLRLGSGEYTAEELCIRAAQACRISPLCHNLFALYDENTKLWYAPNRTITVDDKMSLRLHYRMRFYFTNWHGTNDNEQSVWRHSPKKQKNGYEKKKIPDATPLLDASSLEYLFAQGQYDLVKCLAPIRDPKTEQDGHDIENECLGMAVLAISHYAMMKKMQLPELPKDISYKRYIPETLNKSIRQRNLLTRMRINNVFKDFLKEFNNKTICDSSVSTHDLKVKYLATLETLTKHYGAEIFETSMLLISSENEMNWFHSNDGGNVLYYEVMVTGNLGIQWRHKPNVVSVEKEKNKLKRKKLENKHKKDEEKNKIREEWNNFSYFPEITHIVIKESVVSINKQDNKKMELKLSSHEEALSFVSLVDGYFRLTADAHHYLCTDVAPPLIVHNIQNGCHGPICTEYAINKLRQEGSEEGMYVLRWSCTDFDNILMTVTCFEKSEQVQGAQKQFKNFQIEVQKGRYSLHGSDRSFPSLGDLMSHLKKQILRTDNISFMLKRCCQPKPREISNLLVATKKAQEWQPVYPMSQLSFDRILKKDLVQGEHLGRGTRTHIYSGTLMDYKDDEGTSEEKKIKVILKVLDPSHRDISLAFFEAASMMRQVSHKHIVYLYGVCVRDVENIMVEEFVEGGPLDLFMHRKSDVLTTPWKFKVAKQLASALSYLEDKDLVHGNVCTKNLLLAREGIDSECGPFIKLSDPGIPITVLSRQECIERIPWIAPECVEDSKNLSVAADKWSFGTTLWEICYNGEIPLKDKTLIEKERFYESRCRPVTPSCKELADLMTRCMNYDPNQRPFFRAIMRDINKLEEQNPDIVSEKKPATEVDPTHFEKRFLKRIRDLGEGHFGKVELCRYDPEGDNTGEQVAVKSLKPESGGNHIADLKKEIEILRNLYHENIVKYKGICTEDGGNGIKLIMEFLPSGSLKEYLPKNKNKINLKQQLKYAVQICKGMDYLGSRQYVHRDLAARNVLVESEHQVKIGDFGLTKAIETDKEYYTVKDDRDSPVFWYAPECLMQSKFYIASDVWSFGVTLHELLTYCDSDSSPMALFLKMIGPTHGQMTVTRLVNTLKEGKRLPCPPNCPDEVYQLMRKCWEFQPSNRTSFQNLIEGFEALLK

In the case of `CC(C)=C(C#N)C(=O)Nc1cccc2c(-c3ccnc(NC(=O)C4CC4)c3)n[nH]c12` [US12180185, Example 63], the IC50 is reported as over 1000 nM.
